Our source for the IC50 values is US11767310B2, “Nicotinamide RIPK1 inhibitors” (AbbVie Inc., priority 2021, dated 2023).

Test [1] has as its target RIPK1 (Homo sapiens (Human), UniProt Q13546). As to the kind of experiment: RIPK1 Binding Assay. The following applies: displacement of fluorescent probe, TR-FRET. The procedure:
Compounds were tested for their ability to displace a fluorescent probe from recombinant human RIPK1.
Recombinant human RIPK1 (1-375) was prepared as described in Harris et al., ACS Med. Chem. Letters (2013) 4:1238-1243 (Supplementary Information), with the following exceptions: (i) instead of using the gene sequence from NM_003804.3, the gene was synthesized with codon optimization for BEV expression system, and (ii) the gene was cloned into the vector pFastBac1, not pDEST8.
A fluorescent probe containing an Oregon green fluorophore was synthesized from a compound known to bind to RIPK1.
The assay was performed in a buffer containing 50 mM N-2-Hydroxyethylpiperazine-N′-2-ethanesulfonic acid (HEPES) (pH 7.5), 10 mM MgCl2, 1 mM ethylene diamine tetraacetic acid (EDTA), and 0.01% BRIJ-35 (Polyoxyethylene (23) lauryl ether). Test compounds were solvated in dimethyl sulfoxide (DMSO) at final concentrations 4-fold serially diluted from 100 to 0.000095 uM in technical duplicates into an empty 384 well plate. Recombinant RIPK1 (final concentration of 2.5 nM) was added to the wells and incubated with test compound for 1 hour at room temperature. A solution containing the fluorescent probe (final concentration 5 nM) and an LanthaScreen Tb-anti-GST antibody (Thermofisher Scientific; final concentration of 5 nM) was then added to each well, with the Tb-anti-GST antibody binding to the GST portion of the recombinant RIPK1 and providing the corresponding FRET pair to the fluorescent probe. The plate was incubated for 1 hour at room temperature and read on an Envision plate reader using a time resolved FRET protocol. Data was normalized and analyzed using Studies from Dotmatics.

Test [2] relates to U937 cells. As to the kind of experiment: U937 TNF/zVAD Cytotoxicity Cell Assay. The note with it: Homo sapiens, U-937; TNFα 10 ng/mL + Z-VAD FMK 20 μM, 16-20 hours; read-out: U937 TNF/zVAD Induced Cytotoxicity IC50. Type of test: cell-based. The method, then:
Compounds were tested for their ability to prevent TNF induced necroptosis in U937 cells. Treatment with TNF and the caspase inhibitor zVAD-FMK results in the activation and phosphorylation of RIPK1 and subsequent phosphorylation of RIPK3 and MLKL (Mixed Lineage Kinase Domain Like Pseudokinase), leading to induction of necroptotic cell death that is measured as a reduction in cell viability. Similar U937 assay protocols have been previously described; see, e.g., Harris et al., ACS Med. Chem. Letters (2013) 4:1238-1243 and Supplementary Information.
Test compounds were solvated in dimethyl sulfoxide (DMSO) and 3-fold serially diluted from 10 uM to 0.0005 uM with technical duplicates into an empty 384 well plate. U937 cells were resuspended at a concentration of 500,000 cells/mL in fresh RPMI (Roswell Park Memorial Institute) 1640 growth medium containing 10% heat inactivated fetal bovine serum (FB1S) and seeded into a 384 well plate containing compounds and incubated for 1 hour at 37° C. Following incubation, the cells were challenged with TNFα (final concentration of 10 ng/mL) and Z-VAD FMK (N-Benzyloxycarbonyl-Val-Ala-Asp(O-Me) fluoromethyl ketone; final concentration of 20 μM) for 16-20 hours at 37° C. Following the incubation with TNFα/Z-VAD, cells were lysed with Cell Titer-Glo and incubated for 5-10 minutes. The plate was then read on an Envision plate reader. Data was normalized and analyzed with Studies from Dotmatics.

Chain of RIPK1 (Q13546 1-375): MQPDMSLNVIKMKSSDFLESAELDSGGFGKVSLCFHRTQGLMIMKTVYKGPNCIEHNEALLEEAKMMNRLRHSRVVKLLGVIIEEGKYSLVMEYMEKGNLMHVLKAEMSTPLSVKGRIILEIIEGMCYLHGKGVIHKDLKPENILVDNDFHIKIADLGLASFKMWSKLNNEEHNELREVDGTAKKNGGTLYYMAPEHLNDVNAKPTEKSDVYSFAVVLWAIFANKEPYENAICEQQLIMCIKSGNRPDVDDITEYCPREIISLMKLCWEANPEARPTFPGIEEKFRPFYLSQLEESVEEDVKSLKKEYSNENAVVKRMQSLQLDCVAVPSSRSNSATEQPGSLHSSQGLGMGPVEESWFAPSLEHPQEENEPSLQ

Turning to `Cc1c(C#Cc2cncc(C(=O)N(C)C[C@@H](O)Cc3ccccc3)c2)cnn1C(F)F` [Example 26, (S)-5-((1-(difluoromethyl)-5-methyl-1H-pyrazol-4-yl)ethynyl)-N-(2-hydroxy-3-phenylpropyl)-N-methylnicotinamide], the IC50 in test [1] was determined as 1.8 nM; in test [2] it was 3 nM.
As for `CN(C[C@@H](O)[C@@H](F)c1ccccc1)C(=O)c1cncc(C#Cc2cnn(C)c2)c1` [Example 7, N-((2R,3S)-3-fluoro-2-hydroxy-3-phenylpropyl)-N-methyl-5-((1-methyl-1H-pyrazol-4-yl)ethynyl)nicotinamide], the IC50 was found to be 7 nM in test [1] and 9 nM in test [2].
On to `CN(C[C@@H](O)Cc1ccccc1)C(=O)c1cncc(C#Cc2cnn(C3CCC3)c2)c1` [Example 6, (S)-5-((1-cyclobutyl-1H-pyrazol-4-yl)ethynyl)-N-(2-hydroxy-3-phenylpropyl)-N-methylnicotinamide], for which the results for the IC50 in test [1] and in test [2] were 3 nM and 6 nM, respectively.
For `CN(C[C@@H](O)Cc1ccccc1)C(=O)c1cncc(C#Cc2cnn(C3CC3)c2)c1` [Example 5, (S)-5-((1-cyclopropyl-1H-pyrazol-4-yl)ethynyl)-N-(2-hydroxy-3-phenylpropyl)-N-methylnicotinamide] the same measures were 14 nM and 49 nM.
On to `CN(C[C@@H](O)Cc1ccccc1)C(=O)c1cncc(C#Cc2cnn3c2COCC3)c1` [Example 8, (S)-5-((6,7-Dihydro-4H-pyrazolo[5,1-c][1,4]oxazin-3-yl)ethynyl)-N-(2-hydroxy-3-phenylpropyl)-N-methylnicotinamide], for which the values for the IC50 in test [1] and in test [2] were 6 nM and 13 nM, respectively.
Consider `CN(C[C@@H](O)Cc1ccccc1)C(=O)c1cncc(C#Cc2cnn(C)c2C2CC2)c1` [Example 11, (S)-5-((5-cyclopropyl-1-methyl-1H-pyrazol-4-yl)ethynyl)-N-(2-hydroxy-3-phenylpropyl)-N-methylnicotinamide], for which the values for the IC50 in test [1] and in test [2] were 2 nM and 5 nM, respectively.
For the molecule `Cc1ncc(C(=O)NC[C@@H](O)Cc2ccccc2)cc1C#Cc1cncs1` [Example 16, (S)-N-(2-hydroxy-3-phenylpropyl)-6-methyl-5-(thiazol-5-ylethynyl)nicotinamide], in test [2], the IC50 stood at 2580 nM.
Take `CN(C[C@@H](O)Cc1ccccc1)C(=O)c1cncc(C#Cc2cnn(C(F)(F)F)c2)c1` [Example 4, (S)-N-(2-hydroxy-3-phenylpropyl)-N-methyl-5-((1-(trifluoromethyl)-1H-pyrazol-4-yl)ethynyl)nicotinamide]: the results for the IC50 in test [1] and in test [2] were 30 nM and 199 nM, respectively.
Turning to `CN(C[C@@H](O)Cc1ccccc1)C(=O)c1cncc(C#Cc2cnn(C)n2)c1` [Example 3, (S)-N-(2-hydroxy-3-phenylpropyl)-N-methyl-5-((2-methyl-2H-1,2,3-triazol-4-yl)ethynyl)nicotinamide], the IC50 worked out at 36 nM in test [1] and 196 nM in test [2].
For `Cc1ncc(C#Cc2cncc(C(=O)N(C)C[C@@H](O)Cc3ccccc3)c2)o1` [Example 17, (S)-N-(2-hydroxy-3-phenylpropyl)-N-methyl-5-((2-methyloxazol-5-yl)ethynyl)nicotinamide] the same measures were 32 nM and 146 nM.
As for `CN(CC(O)Cc1ccccc1)C(=O)c1cnc(C(F)F)c(C#Cc2cnn(C)c2)c1` (stereo in doubt) [Example 9, (S)-6-(difluoromethyl)-N-(2-hydroxy-3-phenylpropyl)-N-methyl-5-((1-methyl-1H-pyrazol-4-yl)ethynyl)nicotinamide], the values for the IC50 in test [1] and in test [2] were 18 nM and 29 nM, respectively.
As for `CN(C[C@@H](O)Cc1cccc(F)c1)C(=O)c1cncc(C#Cc2cnn(C)c2)c1` [Example 12, (S)-N-(3-(3-fluorophenyl)-2-hydroxypropyl)-N-methyl-5-((1-methyl-1H-pyrazol-4-yl)ethynyl)nicotinamide], the IC50 in test [1] turned out to be 13 nM; in test [2] it was 20 nM.
For `CN(C[C@@H](O)Cc1ccccc1)C(=O)c1cncc(C#Cc2cnn(C3COC3)n2)c1` [Example 10, (S)-N-(2-hydroxy-3-phenylpropyl)-N-methyl-5-((2-(oxetan-3-yl)-2H-1,2,3-triazol-4-yl)ethynyl)nicotinamide] the same measures were 43 nM and 380 nM.
Take `Cc1ncc(C#Cc2cncc(C(=O)N(C)C[C@@H](O)Cc3ccccc3)c2)s1` [Example 15, (S)-N-(2-hydroxy-3-phenylpropyl)-N-methyl-5-((2-methylthiazol-5-yl)ethynyl) nicotinamide]: in test [1], the IC50 stood at 25000 nM.
As for `COc1ncc(C(=O)N(C)C[C@@H](O)Cc2ccccc2)cc1C#Cc1cnn(C)c1` [Example 13, (S)-N-(2-hydroxy-3-phenylpropyl)-6-methoxy-N-methyl-5-((1-methyl-1H-pyrazol-4-yl)ethynyl)nicotinamide], the IC50 turned out to be 95 nM in test [1] and 382 nM in test [2].
